Values after ≈ are worked out from the molar mass of the structure shown. Each block holds one molecule with its values, some of them ahead of it. Residues, ends and D or L forms follow the SMILES beside them. *: point of attachment. X1 = CC1(C)C(/C=C/C=C/C=C2/N(CCCCS(=O)(=O)O)c3ccc(S(=O)(=O)O)cc3C2(C)C)=[N+](CCCCCC(=O)NCCN2C(=O)CC(*)C2=O)c2ccc(S(=O)(=O)[O-])cc21; X2 = CC1(C)C(=C/C=C/C=C/C2=[N+](CCCCS(=O)(=O)O)c3ccc(S(=O)(=O)[O-])cc3C2(C)C)N(CCCCCC(=O)NCCN2C(=O)CC(*)C2=O)c2ccc(S(=O)(=O)O)cc21; X3 = O=C(O)CN(CCN(CCN(CC(=O)O)CC(=O)O)CC(=O)NCCN1C(=O)CC(*)C1=O)CC(=O)O
Legend:
[1] = tested on: P0-expressing RT4 D6P2T myelinating Schwannoma cells; experiment: Fluorescence confocal microscopy staining of P0-expressing cells; type: cell-based; settings: 1 µM, 1 h incubation at 4 °C, N = 3 per tracer
Description: Cells were trypsinized and seeded onto 35-mm culture dishes that contained a glass insert (MatTek co) on the day prior to the imaging experiment.
To all samples, 1 mL medium containing 1 µM Cy5-P0_1–25, Cy5-P0_21–45, Cy5-P0_41–65, Cy5-P0_61–85, Cy5-P0_81–105, Cy5-P0_95–120, or Cy5-P0_101–125 was added at one hour prior to imaging (incubation at 4 °C; N = 3 per tracer). Peptide solutions were sonicated for 20 s prior to addition, in order to prevent aggregation of the peptides in solution. Cy5-functionalized derivatives of a P0-specific antibody (Cy5-P0Ab-H60), the extracellular portion of P0 (Cy5-P0ex) as well as a non-P0-specific peptide (Cy5-NP-41) and non-functionalized Cy5-Maleimide were used as controls (1 µM). A lysosomal (lysotracker green; 2 µL/mL, DND-26, Thermo Fisher) and nuclear stain (Hoechst 33342; 1 mg/mL, Thermo Fisher) were added as means to localize the cell nucleus and intracellular lysosomes. […]
(§1) In vitro and ex vivo fluorescence confocal images were acquired using a Leica SP8 WL at sequential settings and 10 × or 63 × magnification. […] For blocking studies, quantification of the fluorescence signal intensity (N = 10 for blocked and non-blocked) in the obtained images was performed using ImageJ according to previously described methods. […]

[2] = target: T1, P0 (RT4 D6P2T Schwannoma cells) (Rattus norvegicus, UniProt P06907); experiment: Blocking experiment with P0Ab; type: cell-based; settings: 5 µL of 1 mg/mL P0Ab one hour prior to tracer; N = 10; ImageJ quantification; p = 0.001
T1 construct: was performed using P0-expressing RT4 D6P2T cells; host or cells: RT4 D6P2T Schwannoma cells
T1 sequence (P06907 30-248): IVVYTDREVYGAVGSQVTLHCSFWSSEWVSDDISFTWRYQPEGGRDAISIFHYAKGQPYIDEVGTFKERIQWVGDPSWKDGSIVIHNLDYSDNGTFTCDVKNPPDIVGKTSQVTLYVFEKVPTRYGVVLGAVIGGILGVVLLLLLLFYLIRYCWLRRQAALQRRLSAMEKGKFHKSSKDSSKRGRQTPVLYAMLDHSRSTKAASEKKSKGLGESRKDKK
Description: To all samples, 1 mL medium containing 1 µM Cy5-P0_1–25, Cy5-P0_21–45, Cy5-P0_41–65, Cy5-P0_61–85, Cy5-P0_81–105, Cy5-P0_95–120, or Cy5-P0_101–125 was added at one hour prior to imaging (incubation at 4 °C; N = 3 per tracer). Peptide solutions were sonicated for 20 s prior to addition, in order to prevent aggregation of the peptides in solution. Cy5-functionalized derivatives of a P0-specific antibody (Cy5-P0Ab-H60), the extracellular portion of P0 (Cy5-P0ex) as well as a non-P0-specific peptide (Cy5-NP-41) and non-functionalized Cy5-Maleimide were used as controls (1 µM). A lysosomal (lysotracker green; 2 µL/mL, DND-26, Thermo Fisher) and nuclear stain (Hoechst 33342; 1 mg/mL, Thermo Fisher) were added as means to localize the cell nucleus and intracellular lysosomes. For blocking studies, 5 µL of a 1 mg/mL solution of non-functionalized P0Ab was added to the cells one hour prior to addition of Cy5-P0_101–125. The synthesis of the control compounds is described in the methods section of Additional file 1: Synthesis of control compounds.
as §1

[3] = serum
[4] = Lipophilicity in octanol/water (LogPo/w); type: physicochemical; settings: read-out: Lipophilicity (o/w), LogPo/w
Description: (§2) spectrometer (Pharmacia Biotech).
(§3) Serum protein binding and LogP o/w
(§4) functionalized Cy5 were determined as previously described (7).
(§5) The stability towards glutathione of Cy5-

[5] = Stability towards glutathione; type: physicochemical
Description: as §2, §3, §4, §5

[6] = Serum protein binding; type: in vitro ADME
Description: as §2, §3, §4, §5

[7] = Solubility in H2O; type: physicochemical; settings: water; saturated solution in H2O at r.t., centrifugation, absorption of supernatant (UV/Vis)
[8] = Biodistribution in mice; type: in vivo; settings: mouse, CNS, total radioactivity; 10 MBq intravenous (tail vein), 4 h p.i.
Description: Synthesis and radiolabelling of DTPA-P0_101–125 with ^111In is described in Additional file 1: synthesis of control compounds. For quantitative assessment of the biodistribution of [^111In]In-DTPA-P0_101–125, 10 MBq of the labelled tracer was injected intravenously (tail vein). The percentage of the injected activity per gram of tissue (%IA/g) was assessed at 2 h post-injection as previously described. Excretion was defined as: (MBq present in animal at 24 h post-tracer administration/injected activity) * 100%.

Compound: C[N+]1=C(/C=C/C=C/C=C2/N(CCCCCC(=O)NCCN3C(=O)C=CC3=O)c3ccccc3C2(C)C)C(C)(C)c2ccccc21.[Cl-] [Cy5-Maleimide]
staining of P0-expressing Schwannoma cells [1]: no staining was observed

Cy5-related fluorescence remaining after blocking with P0Ab [2]: 13.5 ± 7.1%
Compound: CC[C@H](C)[C@H](NC(=O)[C@H](CC(=O)O)NC(=O)[C@@H]1CCCN1C(=O)[C@@H]1CCCN1C(=O)[C@H](CC(N)=O)NC(=O)[C@H](CCCCN)NC(C)=O)C(=O)N[C@H](C(=O)NCC(=O)N[C@@H](CCCCN)C(=O)N[C@H](C(=O)N[C@@H](CO)C(=O)N[C@@H](CCC(N)=O)C(=O)N[C@H](C(=O)N[C@H](C(=O)N[C@@H](CC(C)C)C(=O)N[C@@H](Cc1ccc(O)cc1)C(=O)N[C@H](C(=O)N[C@@H](Cc1ccccc1)C(=O)N[C@@H](CCC(=O)O)C(=O)N[C@@H](CCCCN)C(=O)N[C@H](C(=O)N1CCC[C@H]1C(=O)N[C@H](C(=O)N[C@@H](CCCNC(=N)N)C(=O)N[C@@H](Cc1ccc(O)cc1)C(=O)N[C@@H](CSC1CC(=O)N(CCNC(=O)CCCCC[N+]2=C(/C=C/C=C/C=C3/N(CCCCS(=O)(=O)O)c4ccc(S(=O)(=O)O)cc4C3(C)C)C(C)(C)c3cc(S(=O)(=O)[O-])ccc32)C1=O)C(N)=O)[C@@H](C)O)C(C)C)C(C)C)[C@@H](C)O)C(C)C)[C@@H](C)O)C(C)C (stereo partly drawn) [Cy5-P0_101–125] (Ac-KNPPDIVGKTSQVTLYVFEKVPTRYC(X1)-NH2)

Compound: CC[C@H](C)[C@H](NC(=O)[C@H](CC(=O)O)NC(=O)[C@@H]1CCCN1C(=O)[C@@H]1CCCN1C(=O)[C@H](CC(N)=O)NC(=O)[C@H](CCCCN)NC(C)=O)C(=O)N[C@H](C(=O)NCC(=O)N[C@@H](CCCCN)C(=O)N[C@H](C(=O)N[C@@H](CO)C(=O)N[C@@H](CCC(N)=O)C(=O)N[C@H](C(=O)N[C@H](C(=O)N[C@@H](CC(C)C)C(=O)N[C@@H](Cc1ccc(O)cc1)C(=O)N[C@H](C(=O)N[C@@H](Cc1ccccc1)C(=O)N[C@@H](CCC(=O)O)C(=O)N[C@@H](CCCCN)C(=O)N[C@H](C(=O)N1CCC[C@H]1C(=O)N[C@H](C(=O)N[C@@H](CCCNC(=N)N)C(=O)N[C@@H](Cc1ccc(O)cc1)C(=O)N[C@@H](CSC1CC(=O)N(CCNC(=O)CCCCCN2C(=C/C=C/C=C/C3=[N+](CCCCS(=O)(=O)O)c4ccc(S(=O)(=O)[O-])cc4C3(C)C)C(C)(C)c3cc(S(=O)(=O)O)ccc32)C1=O)C(N)=O)[C@@H](C)O)C(C)C)C(C)C)[C@@H](C)O)C(C)C)[C@@H](C)O)C(C)C (stereo partly drawn) [Cy5-P0_101–125] (Ac-KNPPDIVGKTSQVTLYVFEKVPTRYC(X2)-NH2)
remaining at 24 h [3]: 99% | logP [4]: -1.39 ± 0.09 | degradation when incubated with glutathione ([5]; 6 hr at 37 °C): 8% | remaining at 6 h ([5]; buffer or solvent, 37 °C water bath, stock in H2O, HPLC UV/Vis): 92% | Serum protein binding [6]: 89% ± 2% | solubility thermodynamic [7]: 172 µM (≈ 673 µg/mL)

tissue uptake at 4 h [8]: 0.12 ± 0.03 %ID/g
Compound: CC[C@H](C)[C@H](NC(=O)[C@H](CC(=O)O)NC(=O)[C@@H]1CCCN1C(=O)[C@@H]1CCCN1C(=O)[C@H](CC(N)=O)NC(=O)[C@H](CCCCN)NC(C)=O)C(=O)N[C@H](C(=O)NCC(=O)N[C@@H](CCCCN)C(=O)N[C@H](C(=O)N[C@@H](CO)C(=O)N[C@@H](CCC(N)=O)C(=O)N[C@H](C(=O)N[C@H](C(=O)N[C@@H](CC(C)C)C(=O)N[C@@H](Cc1ccc(O)cc1)C(=O)N[C@H](C(=O)N[C@@H](Cc1ccccc1)C(=O)N[C@@H](CCC(=O)O)C(=O)N[C@@H](CCCCN)C(=O)N[C@H](C(=O)N1CCC[C@H]1C(=O)N[C@H](C(=O)N[C@@H](CCCNC(=N)N)C(=O)N[C@@H](Cc1ccc(O)cc1)C(=O)N[C@@H](CSC1CC(=O)N(CCNC(=O)CN(CCN(CC(=O)O)CC(=O)O)CCN(CC(=O)O)CC(=O)O)C1=O)C(N)=O)[C@@H](C)O)C(C)C)C(C)C)[C@@H](C)O)C(C)C)[C@@H](C)O)C(C)C (stereo partly drawn) [[^111In]In-DTPA-P0_101–125, metal not drawn] (Ac-KNPPDIVGKTSQVTLYVFEKVPTRYC(X3)-NH2)

Reference: article PMC8164657, “Intraoperative visualization of nerves using a myelin protein-zero specific fluorescent tracer” (EJNMMI Research, 2021)
